Common to all, as to type: biochemical
The target in one test is T1, mouse plasma FAPα (Mus musculus, UniProt P97321).
T1 construct: from tissue; host or cells: mouse plasma (C57BL/6, EDTA)
T1 sequence (P97321 24-761 limits assumed): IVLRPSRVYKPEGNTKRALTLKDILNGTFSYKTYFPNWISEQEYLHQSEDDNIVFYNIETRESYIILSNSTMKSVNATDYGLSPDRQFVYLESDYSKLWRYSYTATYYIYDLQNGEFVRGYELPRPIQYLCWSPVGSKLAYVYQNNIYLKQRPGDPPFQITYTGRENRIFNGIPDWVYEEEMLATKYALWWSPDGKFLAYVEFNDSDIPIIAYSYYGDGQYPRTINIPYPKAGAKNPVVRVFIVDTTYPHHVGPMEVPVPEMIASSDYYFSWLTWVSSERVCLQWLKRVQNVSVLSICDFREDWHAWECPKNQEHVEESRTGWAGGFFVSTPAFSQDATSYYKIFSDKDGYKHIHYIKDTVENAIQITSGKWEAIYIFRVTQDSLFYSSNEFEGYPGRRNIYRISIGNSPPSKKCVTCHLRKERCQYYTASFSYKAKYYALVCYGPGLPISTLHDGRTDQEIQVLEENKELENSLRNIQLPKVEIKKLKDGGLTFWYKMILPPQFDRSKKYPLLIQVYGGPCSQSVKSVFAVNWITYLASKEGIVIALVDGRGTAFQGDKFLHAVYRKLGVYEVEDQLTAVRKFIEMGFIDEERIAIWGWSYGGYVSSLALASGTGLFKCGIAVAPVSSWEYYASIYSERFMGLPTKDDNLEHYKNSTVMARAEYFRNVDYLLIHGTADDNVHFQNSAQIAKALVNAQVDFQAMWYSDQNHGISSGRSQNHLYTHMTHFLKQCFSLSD
Nature of the test: FAPα enzymatic activity in mouse plasma. The conditions noted are these: C57BL/6 mouse plasma. Here is the method: The blood sample was immediately centrifuged at approximately 9000 g at 4° C. for 5 minutes. Plasma was separated and stored at −80° C. in aliquots of 300 μL. […] The assay was performed for 1 hour at 37° C. protected from light. 7-Amino-4-Methylcoumarin (AMC) release was detected measuring fluorescence at an excitation wavelength of 380 nm and an emission wavelength of 460 nm using a Multifunction Microplate Reader (Synergy 4, Biotek). All measurements were carried out at least as a single point.

The target of test [1] is T2, circulating FAPα from human plasma (Homo sapiens, UniProt Q12884).
T2 construct: from tissue; host or cells: human plasma (EDTA-K2)
T2 sequence (Q12884 24-760 limits assumed): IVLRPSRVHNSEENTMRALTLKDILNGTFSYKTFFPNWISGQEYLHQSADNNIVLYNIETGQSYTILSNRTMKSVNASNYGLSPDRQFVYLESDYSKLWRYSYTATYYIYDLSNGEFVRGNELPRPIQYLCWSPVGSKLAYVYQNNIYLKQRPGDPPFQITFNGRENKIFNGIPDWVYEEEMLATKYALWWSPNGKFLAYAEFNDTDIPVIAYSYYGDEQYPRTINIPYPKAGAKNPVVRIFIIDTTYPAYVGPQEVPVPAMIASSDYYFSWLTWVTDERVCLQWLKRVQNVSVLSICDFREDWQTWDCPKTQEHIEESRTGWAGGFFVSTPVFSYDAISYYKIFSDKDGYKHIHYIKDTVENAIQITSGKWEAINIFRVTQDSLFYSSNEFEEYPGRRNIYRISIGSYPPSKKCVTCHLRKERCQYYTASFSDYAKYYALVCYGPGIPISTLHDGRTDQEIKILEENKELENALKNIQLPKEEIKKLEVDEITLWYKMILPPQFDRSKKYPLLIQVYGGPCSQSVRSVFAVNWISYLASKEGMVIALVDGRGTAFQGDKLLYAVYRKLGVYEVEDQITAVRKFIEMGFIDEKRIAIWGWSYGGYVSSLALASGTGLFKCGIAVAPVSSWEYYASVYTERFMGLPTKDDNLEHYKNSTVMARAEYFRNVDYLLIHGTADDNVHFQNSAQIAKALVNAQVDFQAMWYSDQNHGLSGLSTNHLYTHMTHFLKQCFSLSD
As to the kind of experiment: Ex vivo inhibition of circulating FAPα activity from human plasma. The note with it: human plasma; PRXS-AMC substrate; read-out: FAPα activity in human plasma (PRXS-AMC) IC50. On the procedure:
Human blood was obtained from healthy young volunteers. Blood samples were collected in tubes coated with EDTA-K2 by venipuncture method, mixed gently, then kept on ice and centrifuged at 2,500×g for 15 minutes at 4° C. After plasma separation, samples were stored at −80° C. in aliquots of 300 μL. […] Exemplary compounds were allowed to interact with the enzyme for 15 minutes at 37° C. After pre-incubation, 50 μl of 200 μM PRXS-AMC substrate were added to the all mixtures. All reactions were carried out for 1 h at 37° C. protected from light. AMC release was detected measuring fluorescence at an excitation/emission wavelength of 380/460 nm using a Multifunction Microplate Reader. All measurements were carried out as single point.

Test [2] has as its target T3, recombinant human PREP (rhPREP) (Homo sapiens, UniProt P48147).
T3 sequence (P48147 1-710): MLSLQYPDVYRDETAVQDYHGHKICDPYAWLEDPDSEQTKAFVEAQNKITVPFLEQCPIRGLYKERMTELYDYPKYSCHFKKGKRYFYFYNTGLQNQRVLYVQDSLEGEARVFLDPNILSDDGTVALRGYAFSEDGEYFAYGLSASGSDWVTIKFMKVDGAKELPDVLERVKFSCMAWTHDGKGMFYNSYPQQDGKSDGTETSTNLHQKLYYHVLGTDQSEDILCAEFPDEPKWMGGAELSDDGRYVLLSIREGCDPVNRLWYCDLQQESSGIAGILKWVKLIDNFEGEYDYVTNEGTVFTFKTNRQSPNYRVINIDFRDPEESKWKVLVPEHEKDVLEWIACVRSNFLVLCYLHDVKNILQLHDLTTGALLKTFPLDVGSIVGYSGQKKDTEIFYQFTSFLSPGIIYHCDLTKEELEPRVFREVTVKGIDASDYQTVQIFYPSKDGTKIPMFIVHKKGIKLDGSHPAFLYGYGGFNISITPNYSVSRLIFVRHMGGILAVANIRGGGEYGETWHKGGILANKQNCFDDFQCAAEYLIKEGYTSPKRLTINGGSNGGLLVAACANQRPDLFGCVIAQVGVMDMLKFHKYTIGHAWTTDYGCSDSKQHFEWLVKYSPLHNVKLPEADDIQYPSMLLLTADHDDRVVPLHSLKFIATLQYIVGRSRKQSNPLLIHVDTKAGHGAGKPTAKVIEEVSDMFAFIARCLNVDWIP
Nature of the test: PREP enzymatic activity assay. The note with it: Z-Gly-Pro-AMC substrate. Here is the method:
7-Amino-4-Methylcoumarin (AMC) release was detected by measuring fluorescence at Ex/Em 380/460 nm using a Multifunction Microplate Reader (Synergy 4, Biotek). All measurements were carried out in triplicate.

Where [3] appears, read: PRXS-AMC substrate, read-out: mouse plasma FAPα (PRXS-AMC) (exo IC50).
The mark [4] stands for this setting: Z-Gly-Pro-AMC substrate, read-out: mouse plasma FAPα (Z-Gly-Pro-AMC) (exo IC50).

Read-outs that look alike come from different tables or passages of the source.

Consider `N#C[C@@H]1CC(F)(F)CN1C(=O)CNC(=O)c1ccncc1-c1ccccc1` [Compound 13, (S)—N-(2-(2-cyano-4,4-difluoropyrrolidin-1-yl)-2-oxoethyl)-3-phenylisonicotinamide], for which the IC50 is below 1 µM at mouse plasma FAPα (setting [3]), below 1 µM on mouse plasma FAPα (setting [4]), below 1 µM in test [1] and above 10 µM in test [2].

For the compound `N#C[C@@H]1CC(F)(F)CN1C(=O)CNC(=O)c1ccncc1N1CCOCC1` [Compound 88, N-[2-[(2S)-2-cyano-4,4-difluoro-pyrrolidin-1-yl]-2-oxo-ethyl]-3-morpholino-pyridine-4-carboxamide], the IC50 is below 1 µM at mouse plasma FAPα (setting [3]), below 1 µM at mouse plasma FAPα (setting [4]), below 1 µM in test [1] and above 10 µM in test [2].

On to `N#C[C@@H]1CC(F)(F)CN1C(=O)CNC(=O)c1c[nH]c(=O)c2ccccc12` [Example 1, (S)—N-(2-(2-cyano-4,4-difluoropyrrolidin-1-yl)-2-oxoethyl)-1-oxo-1,2-dihydroisoquinoline-4-carboxamide], for which the results for the IC50 (on mouse plasma FAPα (setting [4]); in test [1]; in test [2]) were below 1 µM, below 1 µM and 1 to 10 µM, respectively.

In the case of `N#C[C@@H]1CC(F)(F)CN1C(=O)CNC(=O)c1c[nH]c(=O)cc1-c1ccc(F)cc1` [Compound 109, (S)—N-(2-(2-cyano-4,4-difluoropyrrolidin-1-yl)-2-oxoethyl)-4-(4-fluorophenyl)-6-oxo-1,6-dihydropyridine-3-carboxamide], the IC50 on mouse plasma FAPα (setting [3]) is below 1 µM; in test [1], below 1 µM; in test [2], above 10 µM.

With `N#C[C@@H]1CC(F)(F)CN1C(=O)CNC(=O)c1c[nH]c(=O)c2ccc(F)cc12` [Compound 26, (S)—N-(2-(2-cyano-4,4-difluoropyrrolidin-1-yl)-2-oxoethyl)-6-fluoro-1-oxo-1,2-dihydroisoquinoline-4-carboxamide], the IC50 at mouse plasma FAPα (setting [3]) is below 1 µM; at mouse plasma FAPα (setting [4]), below 1 µM; in test [1], below 1 µM; in test [2] it was 1 to 10 µM.

Take `N#C[C@@H]1CC(F)(F)CN1C(=O)CNC(=O)c1ccncc1Cc1ccccc1` [Compound 50, (S)-3-benzyl-N-(2-(2-cyano-4,4-difluoropyrrolidin-1-yl)-2-oxoethyl)isonicotinamide]: the IC50 on mouse plasma FAPα (setting [3]) is below 1 µM; at mouse plasma FAPα (setting [4]), below 1 µM; in test [1] it was below 1 µM; in test [2], 1 to 10 µM.

For `C=Cc1cnccc1C(=O)NCC(=O)N1CC(F)(F)C[C@H]1C#N` [Compound 40, (S)—N-(2-(2-cyano-4,4-difluoropyrrolidin-1-yl)-2-oxoethyl)-3-vinylisonicotinamide], the IC50 is below 1 µM on mouse plasma FAPα (setting [3]), below 1 µM at mouse plasma FAPα (setting [4]), below 1 µM in test [1] and 1 to 10 µM in test [2].

Consider `N#C[C@@H]1CC(F)(F)CN1C(=O)CNC(=O)c1ccncc1-c1cc(Cl)ccc1F` [Compound 54, (S)-3-(5-chloro-2-fluorophenyl)-N-(2-(2-cyano-4,4-difluoropyrrolidin-1-yl)-2-oxoethyl)isonicotinamide], for which the IC50 on mouse plasma FAPα (setting [3]) is below 1 µM; at mouse plasma FAPα (setting [4]), below 1 µM; in test [1], below 1 µM; in test [2], above 10 µM.

For `N#C[C@@H]1CC(F)(F)CN1C(=O)CNC(=O)c1ccncc1C1=CCNCC1` [Compound 105, (S)—N-(2-(2-cyano-4,4-difluoropyrrolidin-1-yl)-2-oxoethyl)-1′,2′,3′,6′-tetrahydro-[3,4′-bipyridine]-4-carboxamide 2,2,2-trifluoroacetate], the IC50 on mouse plasma FAPα (setting [3]) is below 1 µM; in test [1], below 1 µM; in test [2], above 10 µM.

On to `N#C[C@@H]1CC(F)(F)CN1C(=O)CNC(=O)c1ccncc1C1CC1` [Compound 24, (S)—N-(2-(2-cyano-4,4-difluoropyrrolidin-1-yl)-2-oxoethyl)-3-cyclopropylisonicotinamide], for which the IC50 is below 1 µM on mouse plasma FAPα (setting [3]), below 1 µM at mouse plasma FAPα (setting [4]), below 1 µM in test [1] and 1 to 10 µM in test [2].

`N#C[C@@H]1CC(F)(F)CN1C(=O)CNC(=O)c1c[nH]c(=O)c(-c2ccccc2)c1` [Compound 14, (S)—N-(2-(2-cyano-4,4-difluoropyrrolidin-1-yl)-2-oxoethyl)-6-oxo-5-phenyl-1,6-dihydropyridine-3-carboxamide]: the IC50 at mouse plasma FAPα (setting [3]) was below 1 µM; on mouse plasma FAPα (setting [4]), below 1 µM; in test [1], below 1 µM; in test [2], above 10 µM.

`C=C(c1ccccc1)c1cnccc1C(=O)NCC(=O)N1CC(F)(F)C[C@H]1C#N` [Compound 122, (S)—N-(2-(2-cyano-4,4-difluoropyrrolidin-1-yl)-2-oxoethyl)-3-(1-phenylvinyl)isonicotinamide]: the 50% inhibitory concentration (IC50) on mouse plasma FAPα (setting [3]) was below 1 µM; in test [2], above 10 µM.

On to `N#C[C@@H]1CC(F)(F)CN1C(=O)CNC(=O)c1ccncc1-c1ccc(F)cc1` [Compound 52, (S)—N-(2-(2-cyano-4,4-difluoropyrrolidin-1-yl)-2-oxoethyl)-3-(4-fluorophenyl)isonicotinamide], for which the IC50 was below 1 µM on mouse plasma FAPα (setting [3]), below 1 µM at mouse plasma FAPα (setting [4]), below 1 µM in test [1] and above 10 µM in test [2].

For the compound `Cn1ncc2c(-c3cnccc3C(=O)NCC(=O)N3CC(F)(F)C[C@H]3C#N)cccc21` [Compound 87, (S)—N-(2-(2-cyano-4,4-difluoropyrrolidin-1-yl)-2-oxoethyl)-3-(1-methyl-1H-indazol-4-yl)isonicotinamide], the IC50 at mouse plasma FAPα (setting [3]) was below 1 µM; on mouse plasma FAPα (setting [4]) it was below 1 µM; in test [1], below 1 µM; in test [2], above 10 µM.

The values above are taken from patent US11780821B2, “Inhibitors of fibroblast activation protein” (Praxis Biotech LLC, priority 2017, dated 2023).
